Each block holds one compound with its values, some of them ahead of it.
How the values were obtained:
[1] = Drug metabolism in human in presence of ketoconazole; format: ADME, organism-based; details: in vivo, with ketoconazole, read-out: Drug metabolism
[2] = biological target: T1, Stearoyl-CoA desaturase (Homo sapiens, UniProt O00767); assay: Inhibition of SCD1 in human HepG2 cells; format: cell-based
T1 sequence (O00767 whole entry): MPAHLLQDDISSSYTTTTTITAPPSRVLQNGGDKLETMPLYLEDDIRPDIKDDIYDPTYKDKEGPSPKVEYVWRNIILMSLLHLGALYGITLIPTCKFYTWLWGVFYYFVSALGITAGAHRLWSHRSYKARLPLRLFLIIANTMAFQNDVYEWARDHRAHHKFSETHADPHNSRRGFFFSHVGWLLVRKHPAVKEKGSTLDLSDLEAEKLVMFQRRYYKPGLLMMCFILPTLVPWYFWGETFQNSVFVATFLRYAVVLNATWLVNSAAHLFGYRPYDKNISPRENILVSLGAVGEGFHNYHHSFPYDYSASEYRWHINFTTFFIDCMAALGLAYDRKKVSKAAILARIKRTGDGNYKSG

[3] = Drug metabolism in human; format: ADME, organism-based; details: in vivo, read-out: Drug metabolism
[4] = Drug metabolism in rat; format: ADME, organism-based; details: in vivo, read-out: Drug metabolism
[5] = biological target: T2, Acyl-CoA desaturase 1 (Rattus norvegicus, UniProt P07308); assay: Inhibition of SCD1 in Wistar rat liver microsomes using [14C] stearic acid as substrate incubated for 10 mins prior to substrate addition measured after 1 hr by chromatographic analysis; design: species or system Microsome
T2 sequence (P07308 whole entry): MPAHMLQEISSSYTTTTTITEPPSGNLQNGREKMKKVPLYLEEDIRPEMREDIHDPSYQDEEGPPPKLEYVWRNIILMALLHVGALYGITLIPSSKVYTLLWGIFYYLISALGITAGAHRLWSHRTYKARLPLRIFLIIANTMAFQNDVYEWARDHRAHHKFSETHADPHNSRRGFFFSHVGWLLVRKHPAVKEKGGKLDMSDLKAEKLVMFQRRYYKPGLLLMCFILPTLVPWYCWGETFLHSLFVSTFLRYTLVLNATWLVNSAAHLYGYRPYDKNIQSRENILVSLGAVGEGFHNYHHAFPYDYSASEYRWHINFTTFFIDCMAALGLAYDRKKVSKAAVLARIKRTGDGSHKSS

[6] = Drug metabolism in mouse; format: ADME, organism-based; details: in vivo, read-out: Drug metabolism
[7] = Drug metabolism in human in presence of quinidine; format: ADME, organism-based; details: in vivo, with quinidine, read-out: Drug metabolism
[8] = Permeability across human Caco2 cells; format: ADME, cell-based; details: Caco-2, read-out: permeability
[9] = Lipophilicity, log D of the compound at pH 7.4; format: physicochemical; details: buffer
[10] = test system: HepG2; assay: Inhibition of ACC phosphorylation in human HepG2 cells at 10 uM by Western blotting analysis relative to control; format: cell-based
[11] = biological target: T2, Acyl-CoA desaturase 1; assay: Inhibition of SCD1 in rat H42E cells; format: cell-based
[12] = Plasma clearance in Zucker diabetic fatty rat at 5 mg/kg, iv; format: ADME, organism-based; design: dose 5 mg/kg, route intravenous
[13] = Apparent half life in Zucker diabetic fatty rat at 30 mg/kg, po; format: ADME, organism-based; design: dose 30 mg/kg, route oral; details: in vivo, read-out: t1/2(app) (converted)
[14] = Cmax in Zucker diabetic fatty rat at 30 mg/kg, po after 4 hrs; format: ADME, organism-based; design: dose 30 mg/kg, route oral; details: in vivo
[15] = test system: Rattus norvegicus; assay: In vivo inhibition of SCD1 in Zucker diabetic fatty rat assessed as decrease in serum fatty acid desaturation index at 30 mg/kg, po after 6 hrs relative to vehicle-treated control; format: functional
[16] = Half life in Zucker diabetic fatty rat at 5 mg/kg, iv; format: ADME, organism-based; design: dose 5 mg/kg, route intravenous; details: in vivo
[17] = Oral bioavailability in Zucker diabetic fatty rat at 30 mg/kg; format: ADME, organism-based; details: in vivo
[18] = test system: Rattus norvegicus; assay: Volume of distribution at steady state in Zucker diabetic fatty rat at 5 mg/kg, iv; format: ADME, organism-based; design: dose 5 mg/kg, route intravenous; details: in vivo

Structure (SMILES): O=C(NCCC1CC1)c1ccc2nc(-c3ccc(Oc4ccccc4Cl)cc3)[nH]c2c1
- metabolised [1]: 45%
- IC50 [2]: 2.34 µM
- metabolised [3]: 62%
- metabolised [4]: 38%
- IC50 [5]: 0.966 µM
- metabolised [6]: 49%
- metabolised [7]: 58%
- Papp [8]: 16.7 ×10⁻⁶ cm/s

Structure (SMILES): CC(C)CCNC(=O)c1ccc2nc(-c3ccc(Oc4ccccc4)cc3)[nH]c2c1
- IC50 [5]: 21.6 µM

Structure (SMILES): O=C(Cc1cccs1)Nc1ccc2nc(N3CCN(C(=O)c4ccccc4C(F)(F)F)CC3)[nH]c2c1
- IC50 [5]: 3.2 µM

Structure (SMILES): CCn1c(COCc2ccccc2)nc2cc(C(=O)NCCc3ccc(O)cc3)ccc21
- IC50 [5]: 5 µM

Structure (SMILES): O=C(NCc1ccc(Cl)s1)c1ccc2[nH]c(-c3ccc(Oc4ccccc4)cc3)nc2c1
- IC50 [5]: 3.7 µM

Structure (SMILES): O=C(NCc1nccs1)c1ccc2nc(-c3ccc(Oc4ccccc4)cc3)[nH]c2c1
- IC50 [5]: 6.51 µM

Structure (SMILES): CC(C)CCNC(=O)c1ccc2[nH]c(-c3ccc(Oc4ccccc4Cl)cc3)nc2c1
- IC50 [5]: 2.72 µM

Structure (SMILES): O=C(NCC1CC1)c1ccc2[nH]c(-c3ccc(Oc4ccccc4)cc3)nc2c1
- IC50 [5]: 16.6 µM

Structure (SMILES): O=C(NCc1nccs1)c1ccc2[nH]c(-c3ccc(Oc4ccccc4C(F)(F)F)cc3)nc2c1
- IC50 [2]: 0.313 µM
- IC50 [5]: 0.212 µM

Structure (SMILES): O=C(CCc1ccccc1)Nc1ccc(N2CCN(C(=O)c3ccccc3C(F)(F)F)CC2)nc1
- IC50 [5]: 2.26 µM

Structure (SMILES): O=C(NCCC1CC1)c1ccc2[nH]c(-c3ccc(Oc4ccccc4Cl)cc3)nc2c1
- inhibition [10]: 140%

Structure (SMILES): O=C(NCc1nccs1)c1ccc2nc(-c3ccc(Oc4ccccc4Cl)cc3)[nH]c2c1
- metabolised [1]: 16%
- IC50 [2]: 1.16 µM
- metabolised [3]: 45%
- metabolised [4]: 38%
- IC50 [11]: 0.305 µM
- IC50 [5]: 0.115 µM
- logD [9]: 2.24
- metabolised [6]: 23%
- metabolised [7]: 40%
- Papp [8]: 6.36 ×10⁻⁶ cm/s

Structure (SMILES): O=C(NCc1nccs1)c1cccc(-c2nc3cc(Oc4ccccc4C(F)(F)F)ccc3[nH]2)c1
- IC50 [5]: 1.3 µM

Structure (SMILES): O=C(NCc1ccc(Cl)s1)c1ccc2nc(-c3ccc(Oc4ccccc4Cl)cc3)[nH]c2c1
- metabolised [1]: 41%
- IC50 [2]: 1.36 µM
- metabolised [3]: 64%
- metabolised [4]: 31%
- IC50 [5]: 0.832 µM
- metabolised [6]: 36%
- metabolised [7]: 62%
- Papp [8]: 11.4 ×10⁻⁶ cm/s

Structure (SMILES): O=C(NCc1ccc(Cl)s1)c1cccc(-c2nc3cc(Oc4ccccc4C(F)(F)F)ccc3[nH]2)c1
- IC50 [5]: 2.21 µM

Structure (SMILES): O=C(NCCC1CC1)c1ccc2nc(-c3ccc(Oc4ccccc4)cc3)[nH]c2c1
- IC50 [5]: 24.9 µM

Now from value to compound, other results behind:

- IC50 [5]: 15.8 µM
Structure (SMILES): O=C(c1ccccc1)c1ccc2nc(-c3ccc(Oc4ccccc4)cc3)[nH]c2c1

- IC50 [5]: > 100 µM
Structure (SMILES): O=C(NCCCc1ccccc1)c1ccc2nc(-c3ccc(Oc4ccccc4C(F)(F)F)cc3)[nH]c2c1

- IC50 [5]: 13.3 µM
Structure (SMILES): O=C(c1ccc2nc(-c3ccc(OCc4ccccc4)cc3)[nH]c2c1)c1ccccc1C(F)(F)F

- IC50 [5]: > 100 µM
Structure (SMILES): O=C(c1ccccc1)c1ccc2nc(-c3ccc(-c4ccccc4)cc3)[nH]c2c1

- IC50 [5]: 0.539 µM
Structure (SMILES): O=C(NCCC1CC1)c1ccc2nc(-c3ccc(Oc4ccccc4C(F)(F)F)cc3)[nH]c2c1

- IC50 [5]: 3.86 µM
Structure (SMILES): CC(C)CCNC(=O)c1ccc2nc(-c3ccc(C(=O)c4ccccc4C(F)(F)F)cc3)[nH]c2c1

- IC50 [5]: 27.2 µM
Structure (SMILES): CNC(=O)c1ccc2nc(-c3ccc(Oc4ccccc4C(F)(F)F)cc3)[nH]c2c1

- IC50 [5]: 38.3 µM
Structure (SMILES): CCOC(=O)c1ccc2[nH]c(-c3ccc(Oc4ccccc4C(F)(F)F)cc3)nc2c1

- IC50 [5]: 3.76 µM
- logD [9]: 3.68
Structure (SMILES): O=C(NCc1cccs1)c1ccc2nc(-c3ccc(Oc4ccccc4)cc3)[nH]c2c1

- IC50 [5]: 0.099 µM
Structure (SMILES): O=C(NCc1cccs1)c1ccc2nc(-c3ccc(C(=O)c4ccccc4C(F)(F)F)cc3)[nH]c2c1

- IC50 [5]: 11.8 µM
Structure (SMILES): O=C(NCc1cccc(C(F)(F)F)c1)c1ccc2[nH]c(-c3ccc(Oc4ccccc4)cc3)nc2c1

- IC50 [5]: 7.81 µM
Structure (SMILES): O=C(NCc1ccccc1)c1ccc2nc(-c3ccc(Oc4ccccc4)cc3)[nH]c2c1

- IC50 [2]: 0.439 µM
- IC50 [5]: 0.142 µM
Structure (SMILES): O=C(NCc1ccc(Cl)s1)c1ccc2nc(-c3ccc(Oc4ccccc4C(F)(F)F)cc3)[nH]c2c1

- metabolised [1]: 46%
- IC50 [2]: 0.295 µM
- metabolised [3]: 71%
- metabolised [4]: 20%
- IC50 [11]: 0.014 µM
- IC50 [5]: 0.082 µM
- metabolised [7]: 60%
- Papp [8]: 18.2 ×10⁻⁶ cm/s
Structure (SMILES): OC(c1ccc2[nH]c(-c3ccc(OCc4ccccc4)cc3)nc2c1)c1ccccc1C(F)(F)F (racemic)

- clearance [12]: 4.17 mL/min/kg
- half-life [13]: 8.4 h
- Cmax [14]: 1950 ng/mL
- metabolised [1]: 10%
- IC50 [2]: 0.157 µM
- metabolised [3]: 45%
- metabolised [4]: 40%
- half-life [16]: 6.5 h
- bioavailability [17]: 25%
- IC50 [11]: 0.182 µM
- Vdss [18]: 1.7 L/kg
- IC50 [5]: 0.136 µM
- logD [9]: 3.94
- metabolised [7]: 40%
- Papp [8]: 5.26 ×10⁻⁶ cm/s
Structure (SMILES): O=C(NCc1ccc(Cl)s1)c1ccc2[nH]c(-c3ccc(C(=O)c4ccccc4C(F)(F)F)cc3)nc2c1
- inhibition in vivo at 30 mg/kg [15]: 84.4%

- IC50 [5]: 28.3 µM
Structure (SMILES): O=C(NCCCc1ccccc1)c1ccc2nc(-c3ccc(Oc4ccccc4)cc3)[nH]c2c1

- IC50 [5]: > 100 µM
Structure (SMILES): O=C(c1ccccc1)c1ccc2nc(-c3ccc(C(=O)c4ccccc4C(F)(F)F)cc3)[nH]c2c1

- IC50 [2]: 0.179 µM
- IC50 [11]: 0.104 µM
- IC50 [5]: 0.078 µM
Structure (SMILES): O=C(NCc1nccs1)c1ccc2[nH]c(-c3ccc(C(=O)c4ccccc4C(F)(F)F)cc3)nc2c1

- IC50 [5]: 0.434 µM
Structure (SMILES): CC(C)CCNC(=O)c1ccc2nc(-c3ccc(Oc4ccccc4C(F)(F)F)cc3)[nH]c2c1

- IC50 [5]: 4.52 µM
Structure (SMILES): O=C(Nc1nccs1)c1ccc2nc(-c3ccc(C(=O)c4ccccc4C(F)(F)F)cc3)[nH]c2c1
